According to article PMC11865548 (Nature Communications, 2025):

Key:
MexL [1] = target: T1, MexL (Pseudomonas aeruginosa, UniProt Q9HXW2); assay: BLI; assay type: binding
T1 sequence (Q9HXW2 1-212): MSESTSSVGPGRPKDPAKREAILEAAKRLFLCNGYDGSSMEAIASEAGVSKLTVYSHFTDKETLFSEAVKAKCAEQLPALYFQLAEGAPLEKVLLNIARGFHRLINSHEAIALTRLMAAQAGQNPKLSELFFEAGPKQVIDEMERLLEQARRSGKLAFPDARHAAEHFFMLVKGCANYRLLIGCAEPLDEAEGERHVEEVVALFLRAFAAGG

MexL [2] = target: T1, MexL; assay: thermal shift; assay type: biochemical

Row | Structure (SMILES) | Kd (MexL [1]) | thermal shift (Tm decrease) and EMSA interference with DNA binding (MexL [2])
1 | Cn1c2cccc(=O)c-2nc2ccccc21 [PYO, pyocyanin] | 84.2 ± 1.8 µM | 
2 | Oc1cc(Cl)ccc1Oc1ccc(Cl)cc1Cl [TCS, triclosan] |  | these two antimicrobials both can interfere with the DNA-binding activity of MexL in EMSA
3 | CN(C)[C@@H]1C(O)=C(C(N)=O)C(=O)[C@@]2(O)C(O)=C3C(=O)c4c(O)cccc4[C@@](C)(O)[C@H]3C[C@@H]12 [TET, tetracycline] |  | both TET and TCS also significantly reduce the Tm values of MexL (Fig. 6b), indicating their interaction with MexL
